Reference: US10723711B2, “1,1,1-trifluoro-3-hydroxypropan-2-yl carbamate derivatives and 1,1,1-trifluoro-4-hydroxybutan-2-yl carbamate derivatives as MAGL inhibitors” (PFIZER INC., priority 2015, dated 2020)
Where two headings read alike, the source gives them in different places.

Tests used:
Type in all cases: biochemical
[1] = biological target: T1, human recombinant Monoacylglycerol Lipase (Homo sapiens, UniProt Q99685); assay: MAGL inhibition enzymatic assay, fluorogenic substrate 7-HCA, IC50 at T=0 min or after 30 minute incubation (T=30 min); settings: geometric mean of 2-4 determinations unless otherwise indicated
T1 sequence (Q99685 1-303): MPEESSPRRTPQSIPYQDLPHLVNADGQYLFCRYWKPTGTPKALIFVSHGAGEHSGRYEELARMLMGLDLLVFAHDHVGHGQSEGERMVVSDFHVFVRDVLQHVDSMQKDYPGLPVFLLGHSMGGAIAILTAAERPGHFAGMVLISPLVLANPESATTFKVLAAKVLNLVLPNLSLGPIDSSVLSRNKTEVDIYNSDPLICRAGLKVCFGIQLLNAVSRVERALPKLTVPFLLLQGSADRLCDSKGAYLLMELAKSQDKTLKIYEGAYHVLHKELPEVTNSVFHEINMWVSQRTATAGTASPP
Method: An equal volume of 7-HCA in assay buffer with 10% DMSO was added either immediately (T=0 min) or after a 30 minute incubation (T=30 min) to initiate the reaction. […] After these dilutions, the final concentration of the test compound ranged from 3 μM to 0.03 nM. […] IC50 values were generated based on a four parameter fit model using ABASE software from IDBS.

human recombinant FAAH = biological target: T2, human recombinant FAAH (Homo sapiens, UniProt O00519); assay: FAAH inhibition enzymatic assay, fluorescent substrate Arachidonoyl-AMC, 30 minute incubation; settings: T = 30 min (30 minute incubation); geometric mean of 2-4 determinations unless otherwise indicated
T2 construct: purchased Cayman 10010183
T2 sequence (O00519 1-579): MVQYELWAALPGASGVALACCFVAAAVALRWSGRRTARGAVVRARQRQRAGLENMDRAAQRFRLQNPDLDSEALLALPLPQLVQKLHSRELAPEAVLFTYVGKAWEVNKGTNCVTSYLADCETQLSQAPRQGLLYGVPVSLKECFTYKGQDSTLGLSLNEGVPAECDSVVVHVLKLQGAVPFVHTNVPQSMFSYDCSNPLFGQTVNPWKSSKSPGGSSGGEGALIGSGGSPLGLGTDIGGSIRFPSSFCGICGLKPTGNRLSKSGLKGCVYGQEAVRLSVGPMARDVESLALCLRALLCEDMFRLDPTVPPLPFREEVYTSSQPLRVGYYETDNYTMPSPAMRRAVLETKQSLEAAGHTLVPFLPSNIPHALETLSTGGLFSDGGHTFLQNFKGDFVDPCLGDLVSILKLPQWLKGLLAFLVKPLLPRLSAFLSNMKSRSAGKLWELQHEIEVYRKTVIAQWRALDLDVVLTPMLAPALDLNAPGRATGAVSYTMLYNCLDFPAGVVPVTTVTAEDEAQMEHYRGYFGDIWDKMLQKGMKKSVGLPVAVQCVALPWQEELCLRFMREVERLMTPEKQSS
Method: Assessment of FAAH inhibition utilizes human recombinant FAAH and the fluorescent substrate, Arachidonoyl-AMC. 400 nL of a test compound at decreasing concentrations was spotted into a 384-well back plate (PerkinElmer, 6007279) using a Labcyte Echo, followed by addition of 10 μl of FAAH enzyme (Cayman 10010183) in assay buffer (50 mM Tris, pH 9.0, 1 mM EDTA). After a 30 minute incubation at room temperature, 10 μL of Arachidonyl-AMCA was added in assay buffer with 16% DMSO. Final concentration of FAAH enzyme was 0.0125 Units and AAMCA substrate was used at the Km of 5 μM. […] The reaction was allowed to progress for 60 minutes, after which the plate was read on a Molecular Devices FlexStation reader at an Ex/Em of 355/460. Percent inhibitions were calculated based on controls wells containing either no compound (0% inhibition) or a control compound (e.g., an FAAH inhibitor whose activity is known or was previously reported in the literature, such as one with about 100% inhibition). IC50 values were generated based on a four parameter fit model using ABASE software from IDBS.

[2] = biological target: T1, human recombinant Monoacylglycerol Lipase; assay: MAGL inactivation, enzyme progress curves, kinact/KI; settings: from enzyme progress curves, T = 0 min protocol; geometric mean of 2-4 determinations unless otherwise indicated
Method: Assessment of MAGL inhibition utilizes human recombinant Monoacylglycerol Lipase and the fluorogenic substrate 7-hydroxycoumarinyl arachidonate (7-HCA, Biomol ST-502). 400 nL of a test compound at decreasing concentration (ranging from 150 μM down to 1.5 nM) was spotted into a 384-well back plate (PerkinElmer, 6007279) using a Labcyte Echo, followed by addition of 10 μL of MAGL enzyme in assay buffer (50 mM HEPES, pH 7.4, 100 mM NaCl, 5 mM MgCl2, 0.1% Triton X-100 and 25% glycerin). An equal volume of 7-HCA in assay buffer with 10% DMSO was added either immediately (T=0 min) or after a 30 minute incubation (T=30 min) to initiate the reaction. The final concentration of MAGL enzyme was […] and 7-HCA substrate was 5 μM. After these dilutions, the final concentration of the test compound ranged from 3 μM to 0.03 nM. The reaction was allowed to progress for 60 minutes, after which the plate was read at an Ex/Em of 340/465. Percent inhibitions were calculated based on control wells containing no compound (0% inhibition) and a control compound (e.g., a MAGL inhibitor whose activity is known or was previously reported in the literature, such as one with about 100% inhibition). IC50 values were generated based on a four parameter fit model using ABASE software from IDBS. See e.g., Wang, Y. et al., “A Fluorescence-Based Assay for Monoacylglycerol Lipase Compatible with Inhibitor Screening,” Assay and Drug Development Technologies, 2008, Vol. 6 (3) pp 387-393 (reporting an assay for measuring MAGL activity).
To measure MAGL inactivation, the same protocol for the (T=0 min) MAGL inhibition IC50 assay was performed with data collected every minute to acquire enzyme progress curves at decreasing concentrations of compound.

[3] = T = 0 min (substrate added immediately), read-out: MAGL (T = 0 min) IC50
[4] = T = 30 min (30 minute incubation), read-out: MAGL (T = 30 min) IC50

| IC50 [1, 3] [nM] | IC50 [1, 4] [nM] | IC50 (human recombinant FAAH) [nM] | MAGL kinact/KI [2] | Compound |
| --- | --- | --- | --- | --- |
| 334 | 30 | > 30000 | – | O=C(O[C@H](CO)C(F)(F)F)N1CCC2(CC1)CC(n1cccn1)CO2 (single isomer, unassigned) [Example 103] |
| 2 | 0.4 | > 24800 | 172844 1/s per M | O=C(O[C@H](CO)C(F)(F)F)N1CCC2(CC1)CC(c1cccc(OC(F)(F)F)c1)CO2 (mixture of isomers) [Example 118] |
| 105 | 10 | > 30000 | 2802 1/s per M | CC(C)CC(=O)N(C)[C@H]1COC2(CCN(C(=O)O[C@H](CO)C(F)(F)F)CC2)C1 [Example 144] |
| 92 | 10 | > 30000 | 6720 1/s per M | O=C(O[C@H](CO)C(F)(F)F)N1CCC2(CC1)CCN(C(=O)C1CCCC1)C2 [Example 124] |
| 349 | 30 | 24600 | – | Cc1ccc(C2COC3(CCN(C(=O)O[C@H](CO)C(F)(F)F)CC3)C2)cn1 (mixture of isomers) [Example 123] |
| 238 | 20 | > 30000 | 2856 1/s per M | CN([C@H]1COC2(CCN(C(=O)O[C@H](CO)C(F)(F)F)CC2)C1)S(=O)(=O)CC1CC1 [Example 106, (2R)-1,1,1-Trifluoro-3-hydroxypropan-2-yl (3R)-3-{[(cyclopropylmethyl)sulfonyl](methyl)amino}-1-oxa-8-azaspiro[4.5]decane-8-carboxylate] |
| 168 | 13 | > 30000 | 4723 1/s per M | O=C(O[C@H](CO)C(F)(F)F)N1CCC2(CC1)CCN(S(=O)(=O)c1cccnc1)C2 [Example 135] |
| 70 | 6 | 7090 | 8796 1/s per M | CN(C1COC2(CCN(C(=O)O[C@H](CO)C(F)(F)F)CC2)C1)S(=O)(=O)c1ccc(F)cc1 (single isomer, unassigned) [Example 110] |
| 198 | 19 | > 30000 | 1476 1/s per M | CN(C(=O)CC1CC1)[C@H]1COC2(CCN(C(=O)O[C@H](CO)C(F)(F)F)CC2)C1 [Example 145] |
| 130 | 12 | – | 8426 1/s per M | O=C(O[C@H](CO)C(F)(F)F)N1CCC2(CC1)CC(OCc1ccccc1)CO2 (mixture of isomers) [Example 132] |

The remaining lines, values behind:

| Compound | IC50 [1, 3] [nM] | IC50 [1, 4] [nM] | IC50 (human recombinant FAAH) [nM] | MAGL kinact/KI [2] |
| --- | --- | --- | --- | --- |
| CC(c1ccc(F)cc1)N1CCOC2(CCN(C(=O)O[C@H](CO)C(F)(F)F)CC2)C1 (single isomer, unassigned) [Example 45] | 191 | 18 | > 30000 | 3134 1/s per M |
| CN([C@@H]1COC2(CCN(C(=O)O[C@H](CO)C(F)(F)F)CC2)C1)S(=O)(=O)C1CC1 [Example 94, (2R)-1,1,1-Trifluoro-3-hydroxypropan-2-yl (3S)-3-[(cyclopropylsulfonyl)(methyl)amino]-1-oxa-8-azaspiro[4.5]decane-8-carboxylate] | 316 | 27 | > 30000 | 3764 1/s per M |
| O=C(OC(C(F)(F)F)C(F)(F)CO)N1C[C@@H]2[C@H](C1)[C@H]2c1ccn(-c2ccc(F)cc2)n1 (stereo partly drawn) [Example 39] | 34 | 2 | 6010 | 9893 1/s per M |
| Cc1cc(S(=O)(=O)N2CCOC3(CCN(C(=O)O[C@H](CO)C(F)(F)F)CC3)C2)ccc1F [Example 51] | 43 | 4 | > 30000 | 10340 1/s per M |
| O=C(O[C@H](CO)C(F)(F)F)N1CCC2(CC1)CN(S(=O)(=O)c1cccc(Cl)c1)CCO2 [Example 83] | 19 | 2 | > 30000 | 21997^d 1/s per M |
| CN([C@H]1COC2(CCN(C(=O)O[C@H](CO)C(F)(F)F)CC2)C1)S(=O)(=O)c1ccccc1 [Example 15, (2R)-1,1,1-trifluoro-3-hydroxypropan-2-yl (3R)-3-[methyl(phenylsulfonyl)amino]-1-oxa-8-azaspiro[4.5]decane-8-carboxylate] | 17 | 2 | – | 44421 1/s per M |
| COc1ccc(-n2ccc([C@H]3[C@@H]4CN(C(=O)O[C@H](CO)C(F)(F)F)C[C@@H]43)n2)nc1 [Example 1, (2R)-1,1,1-trifluoro-3-hydroxypropan-2-yl (1α,5α,6α)-6-[1-(5-methoxypyridin-2-yl)-1H-pyrazol-3-yl]-3-azabicyclo[3.1.0]hexane-3-carboxylate] | 85 | 14 | – | 7806 1/s per M |
| O=C(O[C@H](CO)C(F)(F)F)N1CCC2(CC1)CN(S(=O)(=O)c1ccc(F)c(Cl)c1)CCO2 [Example 60] | 37 | 2 | – | 19870 1/s per M |
| CC1N(S(=O)(=O)c2ccc(F)cc2)CCOC12CCN(C(=O)O[C@H](CO)C(F)(F)F)CC2 (single isomer, unassigned) [Example 71] | 99 | 17 | – | 9358 1/s per M |
| Cc1ccc(OC2CCN(C(=O)O[C@H](CO)C(F)(F)F)CC2)nc1 [Example 57] | 126 | 10 | – | 5998 1/s per M |
| COc1ccc(-n2ccc([C@H]3[C@@H]4CN(C(=O)O[C@H](CO)C(F)(F)F)C[C@@H]43)n2)cn1 [Example 69] | 104 | 11 | – | 4621 1/s per M |
| O=C(O[C@H](CO)C(F)(F)F)N1C[C@@H]2[C@H](C1)[C@H]2c1ccn(Cc2ccccn2)n1 [Example 37] | 357 | 27 | – | 1616 1/s per M |
| O=C(O[C@H](CO)C(F)(F)F)N1CCC2(CC1)CN(Cc1ccc(F)cc1)CCO2 [Example 42] | 304 | 32 | – | 2591 1/s per M |
